Measured values taken from patent publication US12458643B2, “Antidepressant/anxiolytic drug in which PAC1 receptor antagonist is used” (KAGOSHIMA UNIVERSITY, priority 2020, dated 2025).

How the values were obtained:
[1] = tested on: chronic social defeat stress mice; experiment: Chronic social defeat stress, sucrose preference test; type: in vivo, mouse; settings: for sustained effect on reduced sucrose preference: 8, 15, 29, 57 days after single i.p. dose (PA-915 30 mg/kg, ketamine 20 mg/kg), fluoxetine: after withdrawal of 14-day administration
Procedure: In a sucrose preference test, mice are exposed to a sucrose solution and regular water contained in bottles at the same time. Normal mice prefer to drink the sweet sucrose solution, whereas depressed mice drink the sucrose solution at a decreased ratio.
(§1) Chronic social defeat stress was applied at 10 min/day for 10 days (Days 1 to 10) to male C57BL/6N mice (8 to 12 weeks old) each reared in isolation for 10 days or longer. On Day 11, SPAT was conducted, and susceptible mice were selected. A vehicle (10% DMSO solution; dissolved in saline; n=11) or PA-8 (30 mg/kg; n=9) was intraperitoneally administered once daily (0.1 mL/10 g) for 7 consecutive days from day 12. The sucrose preference test was conducted (a sucrose preference ratio was studied for 17 hours) 30 minutes after the final administration on the 7th day (Day 18). Mice reared for 10 days in a home cage without chronic social defeat stress load were used as a control (n=10). The data was indicated by mean±standard error. *P<0.05 (One-way ANOVA followed by Tukey-Kramer test).
as §1, with “PA-9” for “PA-8”, “n=9 or 8)” for “n=9)”, “after administration on” for “after”, “first day (Day 12) and” for “final administration”, “18). […]” for “18).”
Chronic social defeat stress was applied at 10 min/day for 10 days (Days 1 to 10) to male C57BL/6N mice (8 to 12 weeks old) each reared in isolation for 10 days or longer. On Day 11, SPAT was conducted, and susceptible mice were selected. On the next day (Day 12), a vehicle (10% DMSO solution; dissolved in saline; n=11) or PA-915 (30 mg/kg; n=10) was intraperitoneally administered (0.1 mL/10 g) to the mice. The sucrose preference test was conducted (a sucrose preference ratio was studied for 17 hours) from 30 minutes after administration. Mice reared for 10 days in a home cage without chronic social defeat stress load were used as a control (n=15). The data was indicated by mean±standard error. *P<0.05 (One-way ANOVA followed by Tukey-Kramer test).
Chronic social defeat stress was applied at 10 min/day for 10 days (Days 1 to 10) to male C57BL/6N mice (8 to 12 weeks old) each reared in isolation for 10 days or longer. On Day 11, the social preference or avoidance test (SPAT) was conducted, and susceptible mice were selected. On the next day (Day 12), a vehicle (V: 10% DMSO solution; dissolved in saline; n=17), PA-915 (P: 30 mg/kg; n=15), ketamine (K: 20 mg/kg; n=15) or fluoxetine (F: 20 mg/kg; n=16, n=15 only on Day 69) was intraperitoneally administered (0.1 mL/10 g) to the mice. The sucrose preference test was conducted 24 hours later (Day 13), 8 days later (Day 20), 15 days later (Day 27), 29 days later (Day 41), and 57 days later (Day 69) (a sucrose preference ratio was studied on each day from 5:00 p.m. of the previous day to 10:00 a.m. of the day). However, for the fluoxetine administration group, consecutive administration (F: 20 mg/kg, intraperitoneal administration (0.1 mL/10 g)) was performed for 14 days from Day 12 to Day 26. Mice reared for 10 days in a home cage without chronic social defeat stress load were used as a control (n=22). The data was indicated by mean±standard error. **P<0.01; *P<0.05 (One-way ANOVA followed by Tukey-Kramer test). […]

[2] = tested on: single-restraint stress mice; experiment: Single-restraint stress-induced anxiety-like behavior, open field test; type: in vivo, mouse; settings: 30 mg/kg i.p. 30 min before 30 min restraint; 10 min test
Procedure: Male C57BL/6J mice (8 to 12 weeks old) were acclimatized to a laboratory (illuminance: 40 lx) for 60 minutes. Then, a vehicle (10% DMSO solution; dissolved in saline; n=11), PA-8 (30 mg/kg; n=11) or PA-81004 (30 mg/kg; n=8) was intraperitoneally administered thereto (0.1 mL/10 g). After a lapse of 30 minutes after administration, restraint stress (stress caused by holding the mice in tubes of 2.8 cm in diameter with a hole for breathing) was applied thereto for 30 minutes. The mice were allowed to freely explore an open field cage for 10 minutes from immediately after the completion of restraint. Mice that freely behaved in a home cage for 30 minutes without being held and without accessing water and food were used as a control (n=10). The results are shown in FIG. 9 (A: total distance traveled, B: the number of center zone entries, C: time spent in the center zone). The data was indicated by mean±standard error. **P<0.01, *P<0.05 (One-way ANOVA followed by Tukey-Kramer test). […] Male C57BL/6J mice (8 to 12 weeks old) were acclimatized to a laboratory (illuminance: 40 lx) for 60 minutes. Then, a vehicle (10% DMSO solution; dissolved in saline; n=10), PA-9 (30 mg/kg; n=13) or PA-915 (30 mg/kg; n=12) was intraperitoneally administered thereto (0.1 mL/10 g). After a lapse of 30 minutes after administration, restraint stress (stress caused by holding the mice in tubes of 2.8 cm in diameter with a hole for breathing) was applied thereto for 30 minutes. The mice were allowed to freely explore an open field cage for 10 minutes from immediately after the completion of restraint. Mice that freely behaved in a home cage for 30 minutes without being held and without accessing water and food were used as a control (n=10). The results are shown in FIG. 11 (A: total distance traveled, B: the number of center zone entries, C: time spent in the center zone). The data was indicated by mean±standard error. **P<0.01, *P<0.05 (One-way ANOVA followed by Tukey-Kramer test).

[3] = Example 19, single i.p. dose (PA-915 30 mg/kg, ketamine 20 mg/kg, fluoxetine 20 mg/kg), 24 hours later (Day 13)
[4] = chronic social defeat stress, 30 mg/kg i.p. once daily for 7 days, test 30 min after final administration (Day 18)

Compound | sustained effect on reduced sucrose preference ([1]; Example 19) | effect on reduced sucrose preference ([1]; Example 19, fluoxetine 20 mg/kg i.p. 14-day consecutive administration (Day 12 to Day 26)) | effect on reduced sucrose preference [1, 3] | effect on single-restraint stress-induced anxiety-like behavior (open field test) [2] | effect on reduced sucrose preference [1, 4] | effect on reduced sucrose preference ([1]; chronic social defeat stress, 30 mg/kg i.p. single dose (Day 12), test from 30 min after administration, 17 hours)
CNCCC(Oc1ccc(C(F)(F)F)cc1)c1ccccc1 (centres unmarked) [fluoxetine] | its effectiveness was not maintained after drug withdrawal | improved reduced sucrose preference | did not improve sucrose preference | – | – | –
O=C(NCCc1c[nH]cn1)C1CC(=O)N(c2n[nH]c3ccccc23)C1 (centres unmarked) [PA-9] | – | – | – | improving effects | its effect was also sustained after repeated administration for 7 days | improved sucrose preference even by single-dose administration
CNC1(c2ccccc2Cl)CCCCC1=O (centres unmarked) [ketamine] | maintained its effectiveness 8, 15, 29, and 57 days later | – | improved reduced sucrose preference in a fast-acting manner | – | – | –
Nc1nc2c(c(=O)[nH]1)C(c1cccc(OC(F)(F)F)c1)CC(=O)N2 (centres unmarked) [PA-81004, 2-Amino-5-(3-trifluoromethoxyphenyl)-5,8-dihydro-3H,6H-pyrido[2,3-d]pyrimidine-4,7-dione] | – | – | – | improving effects | – | –
C=CCOc1ccc(C2CC(=O)Nc3nc(N)[nH]c(=O)c32)cc1OC (centres unmarked) [PA-8] | – | – | – | improving effects | improving effect | –
